Results published in patent US7205295B2, “Benzoxazin-3-ones and derivatives thereof as therapeutic agents” (Warner-Lambert Company LLC, priority 2002, dated 2007).

biological target: T1, PI3Kγ (p101/p110γ protein) (Homo sapiens, UniProt P48736); assay: PI3Kγ In Vitro Kinase Assay; format: biochemical; conditions: purified recombinant p101/p110γ with G protein β1/γ2 subunits; 20 μM ATP, 25 μM PIP2; 20 minutes at room temperature
T1 construct: HA; made in house; host or cells: Spodoptera frugiperda (Sf9) cells, baculovirus co-infection
Method in brief: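 Reactions ran 20 min at room temperature, pairing lipid micelles (25 μM PIP2, 300 μM PE, 0.02% Na-cholate, 10 mM MgCl2) with 20 μM ATP including [γ-32P]ATP. The enzyme was recombinant p101/p110γ (2.7 nM) with G protein β1/γ2 (57.7 nM). [32P]PIP3 product was stopped with H3PO4, filtered and scintillation counted.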

T1 sequence (P48736 whole entry, species assumed): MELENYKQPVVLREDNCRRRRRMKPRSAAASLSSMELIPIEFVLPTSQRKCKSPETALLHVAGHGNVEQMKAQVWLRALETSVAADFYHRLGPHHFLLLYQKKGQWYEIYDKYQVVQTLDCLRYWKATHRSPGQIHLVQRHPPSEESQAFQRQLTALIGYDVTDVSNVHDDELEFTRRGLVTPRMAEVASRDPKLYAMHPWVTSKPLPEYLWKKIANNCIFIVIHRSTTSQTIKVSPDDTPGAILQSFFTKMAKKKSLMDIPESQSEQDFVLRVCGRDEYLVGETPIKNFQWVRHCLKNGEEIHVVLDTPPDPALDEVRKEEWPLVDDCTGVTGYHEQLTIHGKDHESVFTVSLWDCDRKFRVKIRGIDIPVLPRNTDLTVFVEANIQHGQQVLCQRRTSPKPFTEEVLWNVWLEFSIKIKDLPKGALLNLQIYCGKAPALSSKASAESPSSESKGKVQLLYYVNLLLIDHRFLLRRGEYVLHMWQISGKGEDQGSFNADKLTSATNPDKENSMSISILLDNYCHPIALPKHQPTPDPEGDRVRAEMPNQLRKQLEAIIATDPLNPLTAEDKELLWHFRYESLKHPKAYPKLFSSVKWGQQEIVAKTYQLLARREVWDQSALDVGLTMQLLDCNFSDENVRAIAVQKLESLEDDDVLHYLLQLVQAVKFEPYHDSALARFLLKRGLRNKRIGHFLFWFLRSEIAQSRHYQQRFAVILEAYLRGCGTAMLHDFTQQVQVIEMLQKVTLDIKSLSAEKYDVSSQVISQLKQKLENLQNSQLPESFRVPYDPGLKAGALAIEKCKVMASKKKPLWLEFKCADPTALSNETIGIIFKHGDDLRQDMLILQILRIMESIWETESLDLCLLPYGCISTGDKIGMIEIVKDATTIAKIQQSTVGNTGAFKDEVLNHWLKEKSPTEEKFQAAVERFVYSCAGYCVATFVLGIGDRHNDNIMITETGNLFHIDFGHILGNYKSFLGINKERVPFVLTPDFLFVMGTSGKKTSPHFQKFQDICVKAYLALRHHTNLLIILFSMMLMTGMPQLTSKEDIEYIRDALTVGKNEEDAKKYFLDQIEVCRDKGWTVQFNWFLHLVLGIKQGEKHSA
T1 sequence (Q8WYR1 whole entry partner, species assumed): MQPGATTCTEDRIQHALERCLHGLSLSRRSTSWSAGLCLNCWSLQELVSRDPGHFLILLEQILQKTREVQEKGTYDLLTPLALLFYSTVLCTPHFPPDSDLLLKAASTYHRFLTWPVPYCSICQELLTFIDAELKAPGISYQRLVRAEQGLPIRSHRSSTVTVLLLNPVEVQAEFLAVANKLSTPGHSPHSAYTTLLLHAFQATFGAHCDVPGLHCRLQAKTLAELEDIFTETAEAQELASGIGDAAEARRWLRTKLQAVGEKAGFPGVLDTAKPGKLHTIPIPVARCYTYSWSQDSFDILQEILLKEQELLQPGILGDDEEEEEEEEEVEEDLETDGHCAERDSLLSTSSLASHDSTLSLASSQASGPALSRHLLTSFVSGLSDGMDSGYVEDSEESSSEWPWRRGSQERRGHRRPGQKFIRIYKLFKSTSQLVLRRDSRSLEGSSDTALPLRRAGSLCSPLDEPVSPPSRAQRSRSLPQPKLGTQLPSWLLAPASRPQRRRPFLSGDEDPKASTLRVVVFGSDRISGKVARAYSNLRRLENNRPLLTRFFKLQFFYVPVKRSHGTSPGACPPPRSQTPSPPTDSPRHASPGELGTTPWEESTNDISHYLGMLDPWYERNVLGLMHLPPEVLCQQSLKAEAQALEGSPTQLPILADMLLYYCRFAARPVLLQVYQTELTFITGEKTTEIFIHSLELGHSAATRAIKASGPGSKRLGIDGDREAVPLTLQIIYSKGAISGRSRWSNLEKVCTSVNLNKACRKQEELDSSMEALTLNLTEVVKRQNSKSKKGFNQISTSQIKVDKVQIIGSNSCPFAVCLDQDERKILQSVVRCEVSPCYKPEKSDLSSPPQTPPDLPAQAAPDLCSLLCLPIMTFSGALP

Going from O=C1NC(=S)S/C1=C\c1ccc2c(c1)N(Cc1ccc(C(=O)N3CCOCC3)cc1)C(=O)CO2 [Example 281, 4-[4-(Morpholine-4-carbonyl)-benzyl]-6-[4-oxo-2-thioxo-thiazolidin-(5Z)-ylidenemethyl]-4H-benzo[1,4]oxazin-3-one] to O=C1NC(=S)S/C1=C\c1ccc2c(c1)N(Cc1ccc(C(=O)O)cc1)C(=O)CO2 [Example 288, 4-{3-oxo-6-[4-oxo-2-thioxo-thiazolidin-(5Z)-ylidenemethyl]-2,3-dihydro-benzo[1,4]oxazin-4-ylmethyl}-benzoic acid; Compound with ethane-1,2-diamine], the IC50 rises from 8 nM to 35 nM (4.4-fold).

Going from CC(C)(O)c1cccc(CN2C(=O)COc3ccc(/C=C4\SC(=S)NC4=O)cc32)c1 [Example 282, 4-[3-(1-Hydroxy-1-methyl-ethyl)-benzyl]-6-[4-oxo-2-thioxo-thiazolidin-(5Z)-ylidenemethyl]-4H-benzo[1,4]oxazin-3-one; Compound with ethane-1,2-diamine] to CC(C)(O)c1cc(CN2C(=O)COc3ccc(C=C4SC(=S)NC4=O)cc32)ccc1F [Example 304, 4-[4-Fluoro-3-(1-hydroxy-1-methyl-ethyl)-benzyl]-6-(4-oxo-2-thioxo-thiazolidin-5-ylidenemethyl)-4H-benzo[1,4]oxazin-3-one; Compound with Ethane-1,2-diamine], the IC50 falls from 13 nM to 8 nM (1.6-fold). The second is the more potent here.

COC(C)(C)c1cc(CN2C(=O)COc3ccc(/C=C4\SC(=S)NC4=O)cc32)cc(C(C)(C)C)c1 [Example 283, 4-[3-tert-Butyl-5-(1-methoxy-1-methyl-ethyl)-benzyl]-6-[4-oxo-2-thioxo-thiazolidin-(5Z)-ylidenemethyl]-4H-benzo[1,4]oxazin-3-one] and CC(C)(C)c1cc(CO)cc(CN2C(=O)COc3c(F)cc(/C=C4\SC(=S)NC4=O)cc32)c1 [Example 284, 4-(3-tert-Butyl-5-hydroxymethyl-benzyl)-8-fluoro-6-[4-oxo-2-thioxo-thiazolidin-(5Z)-ylidenemethyl]-4H-benzo[1,4]oxazin-3-one] are within 1.5-fold of each other in IC50: 11 nM for the first, 10 nM for the second.

CC(=O)OCc1cc(CN2C(=O)COc3c(F)cc(/C=C4\SC(=S)NC4=O)cc32)cc(C(C)(C)C)c1 [Example 285, Acetic acid 3-tert-butyl-5-{8-fluoro-3-oxo-6-[4-oxo-2-thioxo-thiazolidin-(5Z)-ylidenemethyl]-2,3-dihydro-benzo[1,4]oxazin-4-ylmethyl}-benzyl ester] and CC(C)(O)c1cc(Cl)cc(CN2C(=O)COc3c(F)cc(C=C4SC(=S)NC4=O)cc32)c1 [Example 293, 4-[3-Chloro-5-(1-hydroxy-1-methyl-ethyl)-benzyl]-8-fluoro-6-(4-oxo-2-thioxo-thiazoldin-5-ylidenemethyl)-4H-benzo[1,4]oxazin-3-one; Compound with Ethane-1,2-diamine] are within 1.5-fold of each other in IC50: 21 nM for the first, 15 nM for the second.

O=C1NC(=S)S/C1=C\c1ccc2oc(=O)n(Cc3ccc(Cl)c(Cl)c3)c2c1 [Example 286, 3-(3,4-Dichloro-benzyl)-5-[4-oxo-2-thioxo-thiazolidin-(5Z)-ylidenemethyl]-3H-benzooxazol-2-one] and O=C1NC(=S)S/C1=C\c1ccc2oc(=O)n(Cc3ccccc3)c2c1 [Example 290, 3-Benzyl-5-[4-oxo-2-thioxo-thiazolidin-(5Z)-ylidenemethyl]-3H-benzooxazol-2-one; Compound with Ethane-1,2-diamine] are within 1.5-fold of each other in IC50: 220 nM for the first, 243 nM for the second.

Compared with O=C1NC(=S)S/C1=C\c1ccc2c(c1)N(Cc1ccc(I)cc1)C(=O)CO2 [Example 287, 4-(4-Iodo-benzyl)-6-[4-oxo-2-thioxo-thiazolidin-(5Z)-ylidenemethyl]-4H-benzo[1,4]oxazin-3-one], O=C1NC(=S)SC1=Cc1ccc2c(c1)N(Cc1ccc(F)cc1)C(=O)CO2 [Example 303, 4-(4-Fluoro-benzyl)-6-(4-oxo-2-thioxo-thiazolidin-5-ylidenemethyl)-4H-benzo[1,4]oxazin-3-one] is 8-fold lower in IC50: 16 nM for the first, 2 nM for the second. The second is the more potent here.

Compared with CS(=O)(=O)c1ccc(CN2C(=O)COc3c(F)cc(/C=C4\SC(=S)NC4=O)cc32)cc1 [Example 289, 8-Fluoro-4-(4-methanesulfonyl-benzyl)-6-[4-oxo-2-thioxo-thiazolidin-(5Z)-ylidenemethyl]-4H-benzo[1,4]oxazin-3-one; Compound with Ethane-1,2-diamine], O=C1NC(=S)SC1=Cc1cc(F)c2c(c1)N(Cc1ccc(F)cc1)C(=O)CO2 [Example 301, 8-Fluoro-4-(4-fluoro-benzyl)-6-(4-oxo-2-thioxo-thiazolidin-5-ylidenemethyl)-4H-benzo[1,4]oxazin-3-one] is 10-fold lower in IC50: 10 nM for the first, 1 nM for the second.

Compared with CS(=O)(=O)c1ccc(Cn2c(=O)oc3ccc(C=C4SC(=S)NC4=O)cc32)cc1 [Example 291, 3-(4-Methanesulfonyl-benzyl)-5-(4-oxo-2-thioxo-thiazolidin-5-ylidenemethyl)-3H-benzoxazol-2-one; Compound with Ethane-1,2-diamine], Cc1cc(CN2C(=O)COc3ccc(C=C4SC(=S)NC4=O)cc32)ccc1F [Example 306, 4-(4-Fluoro-3-methyl-benzyl)-6-(4-oxo-2-thioxo-thiazolidin-5-ylidenemethyl)-4H-benzo[1,4]oxazin-3-one] is 430-fold lower in IC50: 433 nM for the first, 1 nM for the second.

First: O=C1NC(=S)SC1=Cc1cc(F)c2c(c1)N(Cc1ccc(F)c(C(F)(F)F)c1)C(=O)CO2 [Example 292, 8-Fluoro-4-(4-fluoro-3-trifluoromethyl-benzyl)-6-(4-oxo-2-thioxo-thiazolidin-5-ylidenemethyl)-4-H-benzo[1,4]oxazin-3-one]
Second: COc1ccc(CN2C(=O)COc3c(F)cc(C=C4SC(=S)NC4=O)cc32)cc1C(F)(F)F [Example 299, 8-Fluoro-4-(4-methoxy-3-trifluoromethyl-benzyl)-6-(4-oxo-2-thioxo-thiazolidin-5-ylidenemethyl)-4H-benzo[1,4]oxazin-3-one]
The IC50 of the first is 1.8-fold higher: 11 nM for the first, 6 nM for the second.

Going from CC(C)(O)c1ccc(CN2C(=O)COc3c(F)cc(C=C4SC(=S)NC4=O)cc32)cc1 [Example 294, 8-Fluoro-4-[4-(1-hydroxy-1-methyl-ethyl)-benzyl]-6-(4-oxo-2-thioxo-thiazolidin-5-ylidenemethyl)-4H-benzo[1,4]oxazin-3-one] to CC(C)(O)c1cc(CN2C(=O)COc3c(F)cc(C=C4SC(=S)NC4=O)cc32)ccc1F [Example 302, 8-Fluoro-4-[4-fluoro-3-(1-hydroxy-1-methyl-ethyl)-benzyl]-6-(4-oxo-2-thioxo-thiazolidin-5-ylidenemethyl)-4H-benzo[1,4]oxazin-3-one; Compound with Ethane-1,2-diamine], the IC50 rises from 3 nM to 12 nM (4-fold).

O=C1NC(=S)SC1=Cc1ccc2c(c1)N(Cc1cc(F)c(O)c(F)c1)C(=O)CO2 [Example 295, 4-(3,5-Difluoro-4-hydroxy-benzyl)-6-(4-oxo-2-thioxo-thiazolidin-5-ylidenemethyl)-4H-benzo[1,4]oxazin-3-one] and O=C1NC(=S)SC1=Cc1ccc2c(c1)N(Cc1ccc(F)c(F)c1)C(=O)CO2 [Example 312, 4-(3,4-Difluoro-benzyl)-6-(4-oxo-2-thioxo-thiazolidin-5-ylidenemethyl)-4H-1,4-benzoxazin-3-one] are within 1.5-fold of each other in IC50: 4 nM for the first, 3 nM for the second.

First: O=C(O)CN1C(=O)C(=Cc2cc(F)c3c(c2)N(Cc2ccc(F)c(Cl)c2)C(=O)CO3)SC1=S [Example 296, {5-[4-(3-Chloro-4-fluoro-benzyl)-8-fluoro-3-oxo-3,4-dihydro-2H-benzo[1,4]oxazin-6-ylmethylene]-4-oxo-2-thioxo-thiazolidin-3-yl}-acetic acid; compound with ethane-1,2-diamine]
Second: O=C1NC(=S)OC1=Cc1cc(F)c2c(c1)N(Cc1ccc(F)c(Cl)c1)C(=O)CO2 [Example 300, 4-(3-Chloro-4-fluoro-benzyl)-8-fluoro-6-(4-oxo-2-thioxo-oxazolidin-5-ylidenemethyl)-4H-benzo[1,4]oxazin-3-one]
The IC50 of the first is 1300-fold higher: 3850 nM for the first, 3 nM for the second. The second is the more potent here.

Compared with O=C1NC(=S)SC1=Cc1cc(F)c2c(c1)N(Cc1cc(Br)cc(Br)c1)C(=O)CO2 [Example 297, 4-(3,5-Dibromo-benzyl)-8-fluoro-6-(4-oxo-2-thioxo-thiazolidin-5-ylidenemethyl)-4H-benzo[1,4]oxazin-3-one], O=C1NC(=O)C(=Cc2cc(F)c3c(c2)N(Cc2ccc(F)cc2)C(=O)CO3)S1 [Example 298, 5-[8-Fluoro-4-(4-fluoro-benzyl)-3-oxo-3,4-dihydro-2H-benzo[1,4]oxazin-6-ylmethylene]-thiazolidine-2,4-dione] is 36-fold lower in IC50: 36 nM for the first, 1 nM for the second. The second is the more potent here.

Going from CC(C)(O)c1cc(CN2C(=O)COc3ccc(C=C4SC(=O)NC4=O)cc32)ccc1F [Example 305, 5-{4-[4-Fluoro-3-(1-hydroxy-1-methyl-ethyl)-benzyl]-3-oxo-3,4-dihydro-2H-benzo[1,4]oxazin-6-ylmethylene}-thiazolidine-2,4-dione] to O=C1NC(=O)C(=Cc2ccc3c(c2)N(Cc2ccc(F)c(Cl)c2)C(=O)CO3)S1 [Example 308, 5-[4-(3-Chloro-4-fluoro-benzyl)-3-oxo-3,4-dihydro-2H-benzo[1,4]oxazin-6-ylmethylene]-thiazolidine-2,4-dione], the IC50 falls from 16 nM to 1 nM (16-fold). The second is the more potent here.

Compared with O=C1NC(=O)C(=Cc2ccc3c(c2)N(Cc2cccc(Oc4ccccc4F)c2)C(=O)CO3)S1 [Example 307], O=C1NC(=S)SC1=Cc1ccc2c(c1)N(Cc1ccc3nccnc3c1)C(=O)CO2 [Example 314, 6-(4-Oxo-2-thioxo-thiazolidin-5-ylidenemethyl)-4-quinoxalin-6-ylmethyl-4H-benzo[1,4]oxazin-3-one] is 7.2-fold higher in IC50: 5 nM for the first, 36 nM for the second. The first is the more potent here.

Compared with O=C1NC(=S)SC1=Cc1cc(F)c2c(c1)N(CCOc1ccc(F)cc1)C(=O)CO2 [Example 310, 8-Fluoro-4-[2-(4-fluoro-phenoxy)-ethyl]-6-(4-oxo-2-thioxo-thiazolidin-5-ylidenemethyl)-4H-benzo[1,4]oxazin-3-one], COCCN(CCCN1C(=O)COc2c(F)cc(C=C3SC(=S)NC3=O)cc21)CCOC [Example 313] is 3.9-fold higher in IC50: 9 nM for the first, 35 nM for the second. The first is the more potent here.
